Test results published in patent publication US9676714B2, “Sulfonylindole derivatives and method for preparing the same” (Daewoong Pharmaceutical Co., Ltd., priority 2013, dated 2017).
Counter-ions that a name gives are not always drawn.

Target: T1, proton pump (H+/K+-ATPase) (Sus scrofa, UniProt P19156)
T1 construct: Gastric vesicles were prepared from hog stomach via centrifugal separation; from tissue; host or cells: hog stomach (gastric vesicles, method of Rabon et al. 1988)
Assay: Measurement of inhibitory effects on proton pump (H+/K+-ATPase) activities
Assay type: biochemical
Details: hog gastric vesicles, K+-specific H+/K+-ATPase activity, Tris-HCl buffer pH 7.4, 37° C. for 40 minutes, malachite green Pi readout
How it was run: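 Hog gastric vesicles in 60 mmol/l Tris-HCl pH 7.4 with 0.5% DMSO were treated with compounds at room temperature; reaction was started with 10 μl of 10 mmol/l ATP stock. Released Pi was read at 570 nm, K+-specific activity taken as the ±K+ difference. IC50 from 4-parameter logistic fit.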

T1 sequence (P19156 whole entry): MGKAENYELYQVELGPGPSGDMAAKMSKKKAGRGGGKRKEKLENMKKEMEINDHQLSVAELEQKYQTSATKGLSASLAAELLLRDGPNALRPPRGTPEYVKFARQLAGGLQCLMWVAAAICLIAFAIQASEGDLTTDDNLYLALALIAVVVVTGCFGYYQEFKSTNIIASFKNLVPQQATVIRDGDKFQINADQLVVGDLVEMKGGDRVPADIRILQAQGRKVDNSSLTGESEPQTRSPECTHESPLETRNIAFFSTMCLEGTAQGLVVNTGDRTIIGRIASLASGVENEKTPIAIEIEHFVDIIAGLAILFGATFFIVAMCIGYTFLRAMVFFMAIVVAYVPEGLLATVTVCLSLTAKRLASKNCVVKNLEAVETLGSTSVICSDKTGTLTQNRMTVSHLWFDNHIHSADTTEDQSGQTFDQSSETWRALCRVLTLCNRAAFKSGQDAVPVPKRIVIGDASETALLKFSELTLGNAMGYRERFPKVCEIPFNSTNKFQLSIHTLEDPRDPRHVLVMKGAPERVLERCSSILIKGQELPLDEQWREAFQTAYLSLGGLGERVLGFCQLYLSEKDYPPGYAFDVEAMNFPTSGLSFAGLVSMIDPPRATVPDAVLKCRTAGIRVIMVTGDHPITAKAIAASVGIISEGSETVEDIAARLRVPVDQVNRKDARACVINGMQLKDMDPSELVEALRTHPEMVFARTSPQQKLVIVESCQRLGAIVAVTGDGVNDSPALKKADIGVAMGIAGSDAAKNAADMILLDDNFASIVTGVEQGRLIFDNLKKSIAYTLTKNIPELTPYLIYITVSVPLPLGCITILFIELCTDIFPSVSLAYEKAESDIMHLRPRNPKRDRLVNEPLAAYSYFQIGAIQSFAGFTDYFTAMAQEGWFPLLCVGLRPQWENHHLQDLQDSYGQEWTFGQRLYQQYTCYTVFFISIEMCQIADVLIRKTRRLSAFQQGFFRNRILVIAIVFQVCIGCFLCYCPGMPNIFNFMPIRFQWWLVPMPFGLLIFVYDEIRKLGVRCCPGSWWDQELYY
T1 sequence (P18434 whole entry partner): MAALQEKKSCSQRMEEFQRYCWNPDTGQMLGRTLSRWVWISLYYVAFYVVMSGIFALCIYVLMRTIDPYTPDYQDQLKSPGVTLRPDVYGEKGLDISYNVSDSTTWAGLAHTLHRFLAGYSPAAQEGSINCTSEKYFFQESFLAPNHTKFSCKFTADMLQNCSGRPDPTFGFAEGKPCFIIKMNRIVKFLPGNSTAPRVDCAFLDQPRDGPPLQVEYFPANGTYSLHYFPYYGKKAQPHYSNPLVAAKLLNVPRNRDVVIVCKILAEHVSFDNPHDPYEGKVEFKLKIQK

| Compound | IC50 |
| --- | --- |
| CNCc1cn(S(=O)(=O)c2cccnc2)c2cc(Nc3ncccc3Cl)ccc12 [Example 100, N-(3-chloropyridin-2-yl)-3-((methylamino)methyl)-1-(pyridin-3-ylsulfonyl)-1H-indol-6-amine hydrochloride] | 0.8 µM |
| CNCc1cn(S(=O)(=O)c2cccnc2)c2cc(Nc3ncccc3C(F)(F)F)ccc12 [Example 101, 3-((methylamino)methyl)-1-(pyridin-3-ylsulfonyl)-N-(3-(trifluoromethyl)pyridin-2-yl)-1H-indol-6-amine hydrochloride] | 2.2 µM |
| CNCc1cn(S(=O)(=O)c2cccnc2)c2cc(Nc3ncccc3Br)ccc12 [Example 102, N-(3-bromopyridin-2-yl)-3-((methylamino)methyl)-1-(pyridin-3-ylsulfonyl)-1H-indol-6-amine hydrochloride] | 2.52 µM |
| CNCc1cn(S(=O)(=O)c2cccnc2)c2cc(Nc3cccnc3C)ccc12 [Example 105, 3-((methylamino)methyl)-N-(2-methylpyridin-3-yl)-1-(pyridin-3-ylsulfonyl)-1H-indol-6-amine hydrochloride] | 0.88 µM |
| CNCc1cn(S(=O)(=O)c2cccnc2)c2cc(Nc3cccnc3F)ccc12 [Example 106, N-(2-fluoropyridin-3-yl)-3-((methylamino)methyl)-1-(pyridin-3-ylsulfonyl)-1H-indol-6-amine hydrochloride] | 3.38 µM |
| CNCc1cn(S(=O)(=O)c2cccnc2)c2cc(Nc3cccnc3Cl)ccc12 [Example 107, N-(2-chloropyridin-3-yl)-3-((methylamino)methyl)-1-(pyridin-3-ylsulfonyl)-1H-indol-6-amine hydrochloride] | 0.48 µM |
| CNCc1cn(S(=O)(=O)c2cccnc2)c2cc(Nc3cccnc3C(F)(F)F)ccc12 [Example 109, 3-((methylamino)methyl)-1-(pyridin-3-ylsulfonyl)-N-(2-(trifluoromethyl)pyridin-3-yl)-1H-indol-6-amine hydrochloride] | 1.98 µM |
| CNCc1cn(S(=O)(=O)c2cccnc2)c2cc(Nc3cncc(Br)c3)ccc12 [Example 110, N-(5-bromopyridin-3-yl)-3-((methylamino)methyl)-1-(pyridin-3-ylsulfonyl)-1H-indol-6-amine hydrochloride] | 5.04 µM |
| CNCc1cn(S(=O)(=O)c2cccnc2)c2cc(Nc3ccc(C)nc3C)ccc12 [Example 111, N-(2,6-dimethylpyridin-3-yl)-3-((methylamino)methyl)-1-(pyridin-3-ylsulfonyl)-1H-indol-6-amine hydrochloride] | 3.21 µM |
| CNCc1cn(S(=O)(=O)c2cccnc2)c2cc(Nc3ccc(C)nc3F)ccc12 [Example 112, N-(2-fluoro-6-methylpyridin-3-yl)-3-((methylamino)methyl)-1-(pyridin-3-ylsulfonyl)-1H-indol-6-amine hydrochloride] | 0.95 µM |
| CNCc1cn(S(=O)(=O)c2cccnc2)c2cc(Nc3ccc(C)nc3Cl)ccc12 [Example 113, N-(2-chloro-6-methylpyridin-3-yl)-3-((methylamino)methyl)-1-(pyridin-3-ylsulfonyl)-1H-indol-6-amine hydrochloride] | 0.34 µM |
| CNCc1cn(S(=O)(=O)c2cccnc2)c2cc(Nc3ccc(C)nc3C(F)(F)F)ccc12 [Example 115, N-(6-methyl-2-(trifluoromethyl)pyridin-3-yl)-3-((methylamino)methyl)-1-(pyridin-3-ylsulfonyl)-1H-indol-6-amine hydrochloride] | 1.3 µM |
| CNCc1cn(S(=O)(=O)c2cccnc2)c2cc(Nc3ccc(F)nc3C)ccc12 [Example 116, N-(6-fluoro-2-methylpyridin-3-yl)-3-((methylamino)methyl)-1-(pyridin-3-ylsulfonyl)-1H-indol-6-amine hydrochloride] | 1.57 µM |
| CNCc1cn(S(=O)(=O)c2cccnc2)c2cc(Nc3ccc(Cl)nc3C)ccc12 [Example 118, N-(6-chloro-2-methylpyridin-3-yl)-3-((methylamino)methyl)-1-(pyridin-3-ylsulfonyl)-1H-indol-6-amine hydrochloride] | 0.48 µM |
